# Measurements as given in US20070203206A1, “2-Pyrrolidone Derivatives And Use Thereof As Factor Xa Inhibitors” (priority 2003, published 2007).
# Where a name gives a salt, the structure may show the parent alone.
# Molecular target: T1, human Factor Xa (Homo sapiens, UniProt P00742)
# T1 construct: containing human Factor Xa (final conc. Of 0.0003 U·ml-1)
# Experiment: In vitro fluorogenic assay for inhibition of Factor Xa
# Assay type: biochemical
# Conditions: Ki value
# Method: In Vitro Assay for Inhibition of Factor Xa
# Compounds of the present invention were tested for their Factor Xa inhibitory activity as determined in vitro by their ability to inhibit human Factor Xa in a fluorogenic assay, using Rhodamine 110, bis-CBZ-glycylglycyl-L-arginine amide as the fluorogenic substrate. Compounds were diluted from a 10 mM stock solution in dimethylsulfoxide at appropriate concentrations. Assay was performed at room temperature using buffer consisting of: 50 mM Tris-HCl, 150 mM NaCl, 5 mM CaCl2, pH 7.4. containing human Factor Xa (final conc. Of 0.0003 U·ml-1). Compound and enzyme were preincubated for 15 min prior to addition of the substrate (final conc. of 10 μM). The reaction was stopped after 3 hrs with the addition of H-D-Phe-Pro-Arg-Chloromethylketone. […] To obtain IC50 values the data were analysed using ActivityBase® and XLfit®.
# Calculation of Ki values: Ki=IC50/(1+[Substrate]/Km)
# The Ki value for the above assay can be obtained by dividing the IC50 value by 1.6.
# T1 sequence (P00742 235-488 limits assumed): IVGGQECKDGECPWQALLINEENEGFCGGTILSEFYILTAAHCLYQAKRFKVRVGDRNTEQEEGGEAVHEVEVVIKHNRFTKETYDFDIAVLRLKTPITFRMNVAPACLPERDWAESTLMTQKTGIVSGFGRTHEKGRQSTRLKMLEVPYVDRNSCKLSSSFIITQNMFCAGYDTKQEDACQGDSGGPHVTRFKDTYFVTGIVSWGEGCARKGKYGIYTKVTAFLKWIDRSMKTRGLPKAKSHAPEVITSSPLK
# T1 sequence (P00742 41-179 partner limits assumed): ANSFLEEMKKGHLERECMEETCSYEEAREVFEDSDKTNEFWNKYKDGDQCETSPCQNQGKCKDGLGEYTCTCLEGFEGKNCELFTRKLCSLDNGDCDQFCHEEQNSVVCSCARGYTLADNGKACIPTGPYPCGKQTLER
row,Structure (SMILES),Ki [nM]
1,"COCCN(C)C(=O)c1ccc(N2CCC(NS(=O)(=O)/C=C(\C)c3ccc(Cl)s3)C2=O)c(F)c1 (centres unmarked) [Example 5, 4-[3-({[(1E)-2-(5-Chloro-2-thienyl)-1-propen-1-yl]sulfonyl}amino)-2-oxo-1-pyrrolidinyl]-3-fluoro-N-methyl-N-[2-(methyloxy)ethyl]benzamide]",< 1000
2,"C/C(=C\S(=O)(=O)NC1CCN(c2ccc(C(=O)N(C)CCc3c[nH]cn3)cc2F)C1=O)c1ccc(Cl)s1 (centres unmarked) [Example 31, 4-[3-({[(1E)-2-(5-Chloro-2-thienyl)-1-propen-1-yl]sulfonyl}amino)-2-oxo-1-pyrrolidinyl]-3-fluoro-N-[2-(1H-imidazol-4-yl)ethyl]-N-methylbenzamide]",< 100
3,"CNCCN(C)C(=O)c1ccc(N2CCC(NS(=O)(=O)/C=C(\C)c3ccc(Cl)s3)C2=O)c(F)c1 (centres unmarked) [Example 1, 4-[3-({[(1E)-2-(5-Chloro-2-thienyl)-1-propen-1-yl]sulfonyl}amino)-2-oxo-1-pyrrolidinyl]-3-fluoro-N-methyl-N-[2-(methylamino)ethyl]benzamide]",< 100
4,"C/C(=C\S(=O)(=O)NC1CCN(c2ccc(C(=O)N(C)CCc3cccnc3)cc2F)C1=O)c1ccc(Cl)s1 (centres unmarked) [Example 30, 4-[3-({[(1E)-2-(5-Chloro-2-thienyl)-1-propen-1-yl]sulfonyl}amino)-2-oxo-1-pyrrolidinyl]-3-fluoro-N-methyl-N-[2-(3-pyridinyl)ethyl]benzamide]",< 100
5,"C/C(=C\S(=O)(=O)NC1CCN(c2ccc(C(=O)N(C)Cc3ccccn3)cc2F)C1=O)c1ccc(Cl)s1 (centres unmarked) [Example 3, 4-[3-({[(1E)-2-(5-Chloro-2-thienyl)-1-propen-1-yl]sulfonyl}amino)-2-oxo-1-pyrrolidinyl]-3-fluoro-N-methyl-N-(2-pyridinylmethyl)benzamide]",< 100

# Same assay, conditions: human Factor Xa, Rhodamine 110 bis-CBZ-glycylglycyl-L-arginine amide substrate 10 μM, 15 min preincubation, room temperature, pH 7.4; Ki = IC50/1.6; read-out: Ki value
row,Ki [nM],Structure (SMILES)
1,< 1000,CN(CCN)C(=O)c1ccc(N2CCC(NS(=O)(=O)c3cc4ccc(Cl)cc4s3)C2=O)c(F)c1 (centres unmarked) [Example 28]
2,< 100,"CN(CCc1cccnc1)C(=O)c1ccc(N2CCC(NS(=O)(=O)c3cc4ccc(Cl)cc4s3)C2=O)c(F)c1 (centres unmarked) [Example 27, 4-(3-{[(6-Chloro-1-benzothien-2-yl)sulfonyl]amino}-2-oxo-1-pyrrolidinyl)-3-fluoro-N-methyl-N-[2-(3-pyridinyl)ethyl]benzamide]"
3,< 1000,"O=C(NCc1ccncc1)c1ccc(N2CCC(NS(=O)(=O)/C=C/c3ccc(Cl)s3)C2=O)c(F)c1 (centres unmarked) [Example 8, 4-[3-({[(E)-2-(5-Chloro-2-thienyl)ethenyl]sulfonyl}amino)-2-oxo-1-pyrrolidinyl]-3-fluoro-N-(4-pyridinylmethyl)benzamide]"
4,< 100,"CNCCN(C)C(=O)c1ccc(N2CCC(NS(=O)(=O)c3cc4ccc(Cl)cc4s3)C2=O)c(F)c1 (centres unmarked) [Example 26, 4-(3-{[(6-Chloro-1-benzothien-2-yl)sulfonyl]amino}-2-oxo-1-pyrrolidinyl)-3-fluoro-N-methyl-N-[2-(methylamino)ethyl]benzamide formate]"
5,< 1000,"CN(C)CCN(C)C(=O)c1ccc(N2CCC(NS(=O)(=O)c3cc4ccc(Cl)cc4s3)C2=O)c(F)c1 (centres unmarked) [Example 25, 4-(3-{[(6-Chloro-1-benzothien-2-yl)sulfonyl]amino}-2-oxo-1-pyrrolidinyl)-N-[2-(dimethylamino)ethyl]-3-fluoro-N-methylbenzamide formate]"
6,< 100,"C/C(=C\S(=O)(=O)NC1CCN(c2ccc(C(=O)N(C)CCN(C)C)cc2F)C1=O)c1ccc(Cl)s1 (centres unmarked) [Example 29, 4-[3-({[(1E)-2-(5-chloro-2-thienyl)-1-propen-1-yl]sulfonyl}amino)-2-oxo-1-pyrrolidinyl]-N-[2-(dimethylamino)ethyl]-3-fluoro-N-methylbenzamide formate]"
7,< 100,"C/C(=C\S(=O)(=O)NC1CCN(c2ccc(C(=O)N(C)CCS(C)(=O)=O)cc2F)C1=O)c1ccc(Cl)s1 (centres unmarked) [Example 4, 4-[3-({[(1E)-2-(5-Chloro-2-thienyl)-1-propen-1-yl]sulfonyl}amino)-2-oxo-1-pyrrolidinyl]-3-fluoro-N-methyl-N-[2-(methylsulfonyl)ethyl]benzamide]"
8,< 1000,"O=C(NCc1cccnc1)c1ccc(N2CCC(NS(=O)(=O)/C=C/c3ccc(Cl)s3)C2=O)c(F)c1 (centres unmarked) [Example 9, 4-[3-({[(E)-2-(5-Chloro-2-thienyl)ethenyl]sulfonyl}amino)-2-oxo-1-pyrrolidinyl]-3-fluoro-N-(3-pyridinylmethyl)benzamide]"
9,< 1000,"C/C(=C\S(=O)(=O)NC1CCN(c2ccc(C(=O)N(C)CCO)cc2F)C1=O)c1ccc(Cl)s1 (centres unmarked) [Example 2, 4-[3-({[(1E)-2-(5-Chloro-2-thienyl)-1-propen-1-yl]sulfonyl}amino)-2-oxo-1-pyrrolidinyl]-3-fluoro-N-(2-hydroxyethyl)-N-methylbenzamide]"
